Source: patent publication US4585866A, “Treatment of migraine with substituted tropyl benzoate derivatives” (Merrell Dow Pharmaceuticals Inc., priority 1984, dated 1986)
Like-named read-outs stand apart in the source and are kept apart here.

Legend:
[1] = system: 5-HT D-receptor; details: at the doses used clinically for the treatment of migraine; cited from earlier work
[2] = biological target: T1, 5-HT M-receptor (Oryctolagus cuniculus, UniProt A0A5F9C9J3); test: pA2 against 5-HT in isolated rabbit heart; assay type: cell-based
T1 construct: determining their pA2 values in the isolated rabbit heart; from tissue; host or cells: isolated rabbit heart (receptor on the cardiac neurones)
T1 sequence (A0A5F9C9J3 1-494): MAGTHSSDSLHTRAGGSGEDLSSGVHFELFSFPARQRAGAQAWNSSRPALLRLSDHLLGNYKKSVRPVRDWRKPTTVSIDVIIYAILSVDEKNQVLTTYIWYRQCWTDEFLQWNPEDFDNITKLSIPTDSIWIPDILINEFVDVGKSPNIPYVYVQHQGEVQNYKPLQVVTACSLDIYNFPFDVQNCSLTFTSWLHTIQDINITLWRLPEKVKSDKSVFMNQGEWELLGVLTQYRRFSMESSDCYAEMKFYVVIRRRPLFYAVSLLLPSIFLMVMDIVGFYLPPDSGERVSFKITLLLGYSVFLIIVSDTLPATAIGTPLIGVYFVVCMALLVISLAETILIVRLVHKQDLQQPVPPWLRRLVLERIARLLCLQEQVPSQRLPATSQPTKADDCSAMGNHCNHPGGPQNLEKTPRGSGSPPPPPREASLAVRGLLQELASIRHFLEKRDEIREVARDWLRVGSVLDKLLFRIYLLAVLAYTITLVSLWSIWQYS
Method: (§1) The activity of the compounds against 5-HT can be assessed by determining their pA2 values in the isolated rabbit heart as described by J. R. Fozard et al, Eur. J. Pharmacol., 59, 195-210 (1979). In the method described, the molar concentration of antagonist which reduces the effects of twice the ED50 of 5-HT to that of the ED50 in the absence of antagonist is determined. The pA2 value is the negative logarithm of said molar concentrations.

[3] = biological target: T1, 5-HT M-receptor; details: reported by J. R. Fozard et al, Eur. J. Pharmacol. 1979 / 1978; cited from earlier work
[4] = system: guinea-pig ileum; test: Inhibition of standard response to acetylcholine, guinea-pig ileum; assay type: cell-based; details: Cavia porcellus, agonist acetylcholine, read-out: Concentration to inhibit standard response to stimulants by 50% (IC50)
From the text: (§2) A selection of classical in vitro pharmacological test preparations (rat uterus, rat fundus, guinea-pig ileum, guinea-pig taenia caeci) were set up according to well-established procedures (see "Pharmacological Experiments on Isolated Preparations" Staff of the Department of Pharmacology, University of Edinburgh, Livingstone, Edinburgh 1970). Various spasmogens were used to elicit contraction of these tissues though mechanisms other than the 5-HT "M" receptor. The concentrations of tropyl 3,5-dimethoxybenzoate (A), tropyl 3,5-dimethylbenzoate (B) and tropyl 3,5-dichlorobenzoate (C) which reduced the effects of a submaximal dose of agonist by 50% were determined (IC50). The results are set forth in Table VI below in which the compounds are identified by the reference letters used above.

[5] = system: mouse; test: LD50 in the mouse; assay type: in vivo; details: as shown by LD50 values in the mouse and rat
[6] = LD50 in the mouse; assay type: in vivo; details: in vivo, mouse
[7] = LD50 in the rat; details: in vivo, iv
[8] = system: guinea-pig ileum; test: Inhibition of standard response to histamine, guinea-pig ileum; assay type: cell-based; details: Cavia porcellus, agonist histamine, read-out: Concentration to inhibit standard response to stimulants by 50% (IC50)
From the text: as §2

[9] = system: rat fundus; test: Inhibition of standard response to 5-HT, rat fundus; assay type: cell-based; details: agonist 5-HT, read-out: Concentration to inhibit standard response to stimulants by 50% (IC50)
From the text: as §2

[10] = system: guinea-pig taenia caeci; test: Inhibition of standard response to calcium, guinea-pig taenia caeci; assay type: cell-based; details: Cavia porcellus; guinea-pig taenia caeci in potassium-depolarized Tyrode solution, agonist calcium; read-out: Concentration to inhibit standard response to stimulants by 50% (IC50)
From the text: as §2
*In potassiumdepolarized Tyrode solution

[11] = system: Von Bezold-Jarisch Reflex (5-HT M-receptor); test: Antagonism of the Von Bezold-Jarisch reflex evoked by 5-HT in the anaesthetized rat; assay type: in vivo, rat (male Sprague-Dawley); details: comparison in words, i.v.
From the text: The activity of these compounds against 5-HT can be assessed in vivo by measurement of the effect of the compound on the Von Bezold-Jarisch Reflex induced by 5-HT injected intravenously into the rat (A. S. Paintal, Physiol. Rev. 53, 159-227, 1973). The transient caridac slowing arises from an increased afferent vagus activity arising from stimulation by 5-HT of sensory afferent fibres in and around the heart (see Example 3).
Antagonism of the Von Bezold-Jarisch reflex evoked by 5-HT in the anaesthetized rat was measured for tropyl 3,5-dimethoxybenzoate (A), tropyl 3,5-dimethylbenzoate (B) and tropyl 3,5-dichlorobenzoate (C) using the following method.
Male Sprague-Dawley rats weighing 250-300 g are anaesthetized with urethane, 1.25 g/kg injected intraperitoneally and set up for recording blood pressure and heart rate as described in J. R. Fozard et al, J. Cardiovas. Pharmacol. 2, 229-245 (1980). A submaximal dose of 5-HT ([…]) is given repeatedly into the cannulated jugular vein and changes in heart rate are quantified. Antagonists are given intravenously and the doses required to just inhibit the response to 5-HT (threshold dose) or to inhibit the response to 5-HT by 50% (ED50) are determined.

[12] = system: rat uterus; test: Inhibition of standard response to 5-HT, rat uterus; assay type: cell-based; details: agonist 5-HT, read-out: Concentration to inhibit standard response to stimulants by 50% (IC50)
From the text: as §2

[13] = system: rat fundus; test: Inhibition of standard response to acetylcholine, rat fundus; assay type: cell-based; details: agonist acetylcholine, read-out: Concentration to inhibit standard response to stimulants by 50% (IC50)
From the text: as §2

[14] = biological target: T2, rabbit heart (5-HT M receptor) (Oryctolagus cuniculus, UniProt A0A5F9C9J3); test: Inhibition of standard response to 5-HT, rabbit heart; assay type: cell-based
T2 construct: RABBIT HEART; from tissue; host or cells: rabbit heart
T2 sequence (A0A5F9C9J3 1-494): T1 sequence (A0A5F9C9J3 1-494)
Method: as §1, §2

[15] = system: rat uterus; test: Inhibition of standard response to oxytocin, rat uterus; assay type: cell-based; details: agonist oxytocin, read-out: Concentration to inhibit standard response to stimulants by 50% (IC50)
From the text: as §2

[16] = system: migraine or cluster headaches; test: Pilot study of intravenous tropyl 3,5-dichlorobenzoate in patients with migraine or cluster headaches; assay type: in vivo
From the text: Pilot Study of Tolerance To Intravenous Tropyl 3,5-Dichlorobenzoate in Patients With Migraine or Cluster Headaches
This study was designed to evaluate tolerance and, if possible, efficacy of intravenous tropyl 3,5-dichlorobenzoate in patients with migraine or cluster headaches.
Eight patients (4 males), aged 27-47 with known headache disorders of 5-27 years duration (see Table VII) took part in the study but Patients Nos. 2 and 4 had cluster not migraine headaches and the cause of headaches in Patient No. 6 was unknown.
Tropyl 3,5-dichlorobenzoate was provided as a sterile solution, 1 mg/ml; the desired dose to be diluted in 10 ml normal saline for intravenous infusion over a 2 minute period. No other therapy was taken for at least 24 hours before treatment or during the course of therapy.

[17] = isolated rabbit heart, negative log of molar concentration of antagonist reducing effect of twice the ED50 of 5-HT to that of the ED50, read-out: pA2 5-HT (converted)
[18] = Patient 6, i.v., after 4 mg dose
[19] = Patient 8, i.v., first day of 9 mg

CN(C)CCC=C1c2ccccc2CCc2ccccc21 [amitriptyline]
5-HT D-receptor antagonism [1]: 5-HT D-receptor antagonists

Cc1ccc(C(=O)O[C@H]2C[C@H]3CC[C@@H](C2)N3C)cc1 [tropyl 4-methylbenzoate, reference compound]
Kb [2, 17]: 15.8 nM

CC[C@@H](CO)NC(=O)[C@@H]1C=C2c3cccc4c3c(cn4C)C[C@H]2N(C)C1 [methysergide]
5-HT D-receptor antagonism [1]: 5-HT D-receptor antagonists

COc1cc(C(=O)O[C@H]2C[C@H]3CC[C@@H](C2)N3C)cc(OC)c1OC [tropyl 3,4,5-trimethoxybenzoate]
Kb [2, 17]: 3.16 nM

CN(C)CCCN1c2ccccc2Sc2ccc(Cl)cc21 [chlorpromazine]
5-HT D-receptor antagonism [1]: 5-HT D-receptor antagonists

COC(=O)C1C2CCC(CC1OC(=O)c1ccccc1)N2 (single isomer, unassigned) [nor(-) cocaine]
pA2 value (5-HT) [3]: 7.7

O=C(O[C@H]1C[C@H]2CC[C@@H](C1)N2)c1cc(Cl)cc(Cl)c1 [nortropyl 3,5-dichlorobenzoate, reference compound]
Kb [2, 17]: 15.8 nM

CN1[C@@H]2CC[C@H]1C[C@@H](OC(=O)c1ccccc1)C2 [tropylbenzoate, reference compound]
pA2 value (5-HT) [3]: 7.12 | Kb [2, 17]: 63.1 nM

Cc1cccc(C(=O)O[C@H]2C[C@H]3CC[C@@H](C2)N3C)c1 [tropyl 3-methylbenzoate]
Kb [2, 17]: 6.31 nM

CN1[C@@H]2CC[C@H]1C[C@@H](OC(=O)c1cccc(Cl)c1)C2 [tropyl 3-chlorobenzoate]
Kb [2, 17]: 2.51 nM

COc1cc(OC)cc(C(=O)O[C@H]2C[C@H]3CC[C@@H](C2)N3C)c1 [tropyl 3,5-dimethoxybenzoate]
IC50 [4]: 9.56 µM | toxicity in words [5]: relatively non-toxic | LD50 ([6]; ip): 28 mg/kg | LD50 ([6]; iv): 29 mg/kg | LD50 ([6]; sc): 17 mg/kg | LD50 ([6]; oral): 160 mg/kg | LD50 [7]: 13 mg/kg | IC50 [8]: 6.61 µM | IC50 [9]: 40 µM | IC50 [10]: 36.1 µM | potency relative to metoclopramide [11]: many times more potent than metoclopramide | IC50 [12]: > 52.5 µM | IC50 [13]: 13.1 µM | IC50 ([14]; rabbit heart, agonist 5-HT, read-out: Concentration to inhibit standard response to stimulants by 50% (IC50)): 9.4 nM | IC50 [15]: > 52.5 µM | Kb [2, 17]: 3.98 nM

CC(C)NC[C@H](O)COc1cccc2ccccc12 (racemic) [propanolol]
5-HT D-receptor antagonism [1]: 5-HT D-receptor antagonists

CN1[C@@H]2CC[C@H]1C[C@@H](OC(=O)c1cc(Cl)cc(Cl)c1)C2 [tropyl 3,5-dichlorobenzoate]
IC50 [4]: 8.05 µM | toxicity in words [5]: relatively non-toxic | LD50 ([6]; ip): 32 mg/kg | LD50 ([6]; iv): 24 mg/kg | LD50 ([6]; oral): 90 mg/kg | LD50 [7]: 14 mg/kg | IC50 [8]: 3.68 µM | IC50 [9]: > 50.9 µM | IC50 [10]: 28.6 µM | response ([16]; Patient 1, i.v. 1 mg, then 1 hour later, 2 mg): no effect on headache or nausea | response ([16]; Patient 2 (cluster headache), i.v. 1 mg): no effect | response ([16]; Patient 3, i.v. 3 mg): no effect | response ([16]; Patient 4 (cluster headache), i.v. 3 mg): no effect | response ([16]; Patient 5, i.v. 5 mg): no effect | period over which reduction in headache intensity lasted ([16]; Patient 6, i.v.): 21/2 | headache reduction ([16]; Patient 6, i.v. 3 mg single doses): slight reduction in their bilateral headache | headache reduction ([16]; Patient 6, i.v. 4 mg bid): further amelioration | response with increased doses ([16]; Patient 6, i.v. 5 mg bid × 2 days, then 6 mg bid × 11 days): no greater effect | duration of reduction of pain intensity [16, 18]: 4 to 8 h | onset of reduction of pain intensity [16, 18]: ≤ 30 min | reduction of pain intensity ([16]; Patient 6, i.v., within 30 minutes after 4 mg dose): 70-80% | response ([16]; Patient 7, i.v. 3 mg × 1 day, 5 mg × 2 days, 7 mg × 1 day): no effect | return of headache to pretreatment intensity after stopping therapy ([16]; Patient 8, after stopping i.v. therapy): 6 to 7 days | reduction of pain ([16]; Patient 8, i.v. 3 mg): about 30% | response during increasing doses ([16]; Patient 8, i.v. 6 mg × 1 day, 7 mg × 2 days, 9 mg × 1 day): maintained during increasing doses | episode of pain, nausea, vomiting and photophobia [16, 19]: single episode of pain | symptom return during treatment [16, 19]: single episode of symptom return | symptoms (headache, nausea, vomiting, vertigo, photophobia) ([16]; Patient 8, i.v., first dose of 3 mg): decrease in all symptoms | tolerance of initial dose ([16]; i.v., initial dose 1 mg): well tolerated | cumulative dose well tolerated ([16]; i.v., over 18 days): ≤ 177 mg | dose administered without any signs of intolerance, daily ([16]; i.v., patients): ≤ 14 mg/day | dose well tolerated, repeated doses ([16]; i.v., repeated doses, patients with headaches): up to 7 mg b.i.d. | number of patients responding to repeated doses ([16]; repeated i.v. doses, marked diminution of headache and associated symptoms, of three patients): two of the three patients | headache and associated symptoms ([16]; repeated i.v. doses, two of the three patients (Patients Nos. 6 and 8)): marked diminution of headache and associated symptoms | pain intensity and associated symptoms ([16]; some patients, i.v. doses of 3 mg or greater): pain intensity and associated symptoms were ameliorated | potency relative to metoclopramide [11]: many times more potent than metoclopramide | IC50 [12]: 25.4 µM | IC50 [13]: 12.4 µM | IC50 [14]: 0.82 nM | IC50 [15]: > 50.9 µM | Kb [2]: 0.501 nM

CN1[C@@H]2CC[C@H]1C[C@@H](OC(=O)c1ccc(Cl)cc1)C2 [tropyl 4-chlorobenzoate, reference compound]
Kb [2, 17]: 100 nM

COc1ccc(C(=O)O[C@H]2C[C@H]3CC[C@@H](C2)N3C)cc1OC [tropyl 3,4-dimethoxybenzoate, reference compound]
Kb [2, 17]: 63.1 nM
